US12371428B2 (Exelixis, Inc., priority 2019, dated 2025)
pIC50: −log10 of the molar value.

How the values were obtained:
[1] = target: Human Met (residues R974-S1390 with A1209G and V1290L) (Homo sapiens, UniProt P08581); assay: Human Met kinase assay, 33P-phosphoryl transfer radiometric (Example D-1, KinaseProfiler); format: biochemical; conditions: protocol of Example D-1 (compounds 21-27, 41-47, 99, 104); read-out: c-Met IC50
Method: (§1) Kinase activity and compound inhibition were investigated using the ^33P-Phosphoryl transfer radiometric kinase assay, performed using the KinaseProfiler™ service of Eurofins Pharma Discovery Services UK Limited. Dose-response experiments were performed using nine compound concentrations in a 96-well microtiter plate. For each assay, all compounds were prepared to a 50× final assay concentration (50 μM) in 100% DMSO, then diluted in a half-log series, with the final top concentration at 1 μM. This working stock of the compound was added to the assay well as the first component in the reaction, followed by the remaining components as detailed in the following assay protocols below. The positive control wells (100% kinase activity) contain all components of the reaction including 2% DMSO (control for solvent effects), except the compound of interest. Blank wells contain all components of the reaction, with the reference inhibitor, staurosporine. This reference compound was used to abolish kinase activity and generated the 0% kinase activity base-line. IC50 values were calculated by nonlinear regression analysis using the sigmoidal dose-response (variable slope) curve fit on XLFit version 5.3 (ID Business Solutions).
Example D-1: Human Met (residues R974-S1390 with A1209G and V1290L, 3.4 nM) was incubated with 8 mM MOPS pH 7.0, 0.2 mM EDTA, 250 µM […] (SEQ ID NO:3), 1 mM sodium orthovanadate, 5 mM […], 10 mM magnesium acetate, and 10 μM [γ-^33P-ATP]. The reaction was initiated by the addition of the Mg/ATP mix. After incubation for 40 minutes at room temperature, the reaction was stopped by the addition of phosphoric acid to a concentration of 0.5%. A reaction aliquot of 10 μL was then spotted onto a P30 filtermat and washed four times for 4 minutes in 0.425% phosphoric acid and once in methanol prior to drying and scintillation counting. Incorporated ^33P was measured using the Wallac Microbeta scintillation counter (Perkin Elmer).

[2] = target: Human KDR (residues K790-V1356) (Homo sapiens (Human), UniProt P35968); assay: Human KDR kinase assay, 33P-phosphoryl transfer radiometric (Example B-1, KinaseProfiler); format: biochemical; conditions: protocol of Example B-1 (compounds 21-27, 41-47, 99, 104)
Human KDR (residues K790-V1356), sequence (P35968 790-1356): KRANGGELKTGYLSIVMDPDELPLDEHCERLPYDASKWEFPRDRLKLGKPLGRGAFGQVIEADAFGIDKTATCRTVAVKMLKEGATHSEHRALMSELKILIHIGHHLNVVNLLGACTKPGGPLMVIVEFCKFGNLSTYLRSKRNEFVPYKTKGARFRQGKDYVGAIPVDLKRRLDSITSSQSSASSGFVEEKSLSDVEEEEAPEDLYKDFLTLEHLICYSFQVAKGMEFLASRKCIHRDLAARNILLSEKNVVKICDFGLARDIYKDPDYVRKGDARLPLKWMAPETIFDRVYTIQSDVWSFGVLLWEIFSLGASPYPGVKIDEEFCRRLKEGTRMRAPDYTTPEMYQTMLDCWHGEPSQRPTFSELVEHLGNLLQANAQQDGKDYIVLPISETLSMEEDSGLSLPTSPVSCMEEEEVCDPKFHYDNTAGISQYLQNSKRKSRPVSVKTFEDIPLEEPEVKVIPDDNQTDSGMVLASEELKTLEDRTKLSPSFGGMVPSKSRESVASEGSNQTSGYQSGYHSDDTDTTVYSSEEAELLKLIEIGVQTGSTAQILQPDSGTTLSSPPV
Method: as §1
Example B-1: Human KDR (residues K790-V1356, 55 nM) was incubated with 8 mM MOPS pH 7.0, 0.2 mM EDTA, 0.33 mg/mL myelin basic protein, 10 mM magnesium acetate, and 10 μM [γ-^33P-ATP]. The reaction was initiated by the addition of the Mg/ATP mix. After incubation for 40 minutes at room temperature, the reaction was stopped by the addition of phosphoric acid to a concentration of 0.5%. A reaction aliquot of 10 μL was then spotted onto a P30 filtermat and washed four times for 4 minutes in 0.425% phosphoric acid and once in methanol prior to drying and scintillation counting. Incorporated ^33P was measured using the Wallac Microbeta scintillation counter (Perkin Elmer).

Human Met (residues R974-S1390 with A1209G and V1290L), sequence (P08581 25-1390 limits assumed, stated change not applied): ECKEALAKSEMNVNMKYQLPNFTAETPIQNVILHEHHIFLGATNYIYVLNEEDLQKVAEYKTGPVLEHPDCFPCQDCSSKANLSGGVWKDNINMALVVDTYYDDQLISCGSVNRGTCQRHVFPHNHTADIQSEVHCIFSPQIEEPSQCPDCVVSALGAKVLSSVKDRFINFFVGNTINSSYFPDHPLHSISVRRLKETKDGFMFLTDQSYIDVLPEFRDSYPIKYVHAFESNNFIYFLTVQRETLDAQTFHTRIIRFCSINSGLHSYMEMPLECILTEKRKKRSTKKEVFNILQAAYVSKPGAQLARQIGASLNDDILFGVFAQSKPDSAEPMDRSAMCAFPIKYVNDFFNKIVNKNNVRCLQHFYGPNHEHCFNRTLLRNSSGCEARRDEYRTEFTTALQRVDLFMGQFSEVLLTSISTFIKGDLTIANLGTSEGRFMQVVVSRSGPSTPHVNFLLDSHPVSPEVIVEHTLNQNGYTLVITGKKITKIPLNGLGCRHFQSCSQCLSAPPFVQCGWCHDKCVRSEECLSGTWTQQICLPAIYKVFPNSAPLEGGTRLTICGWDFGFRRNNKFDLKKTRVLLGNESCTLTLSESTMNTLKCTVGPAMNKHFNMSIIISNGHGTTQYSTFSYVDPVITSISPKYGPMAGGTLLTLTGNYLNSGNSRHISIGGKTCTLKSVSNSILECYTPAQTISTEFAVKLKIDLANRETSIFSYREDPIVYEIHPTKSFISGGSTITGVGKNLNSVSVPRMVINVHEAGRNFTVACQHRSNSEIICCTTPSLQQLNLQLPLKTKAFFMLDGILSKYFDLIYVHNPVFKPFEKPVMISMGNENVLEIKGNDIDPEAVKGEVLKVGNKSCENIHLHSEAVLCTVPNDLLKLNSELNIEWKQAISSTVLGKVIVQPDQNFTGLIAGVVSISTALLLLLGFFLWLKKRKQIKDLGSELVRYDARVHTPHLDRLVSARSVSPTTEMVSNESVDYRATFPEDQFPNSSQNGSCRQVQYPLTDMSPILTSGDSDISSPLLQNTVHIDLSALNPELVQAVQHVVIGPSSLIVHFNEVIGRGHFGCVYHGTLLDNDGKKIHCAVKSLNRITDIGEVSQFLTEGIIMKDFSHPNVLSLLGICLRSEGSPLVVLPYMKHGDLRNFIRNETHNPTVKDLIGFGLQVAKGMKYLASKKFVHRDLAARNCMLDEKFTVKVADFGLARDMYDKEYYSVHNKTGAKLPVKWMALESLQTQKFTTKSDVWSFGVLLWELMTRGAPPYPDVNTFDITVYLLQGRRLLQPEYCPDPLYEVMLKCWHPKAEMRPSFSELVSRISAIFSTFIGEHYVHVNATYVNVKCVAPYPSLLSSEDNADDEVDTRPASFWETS

SMILES | pIC50 [1] | pIC50 [2]
COc1cc2nccc(Oc3ccc(NC(=O)c4cn(C(C)C)c(C)c(-c5ccc(Cl)c(Cl)c5)c4=O)cc3F)c2nc1OC [Compound 25, 5-(3,4-Dichlorophenyl)-N-[4-[(6,7-dimethoxy-1,5-naphthyridin-4-yl)oxy]-3-fluorophenyl]-6-methyl-4-oxo-1-propan-2-ylpyridine-3-carboxamide] | > 7.00 | > 7.00
COc1cc2nccc(Oc3ccc(NC(=O)c4cn(C5CCCC5)c(C)c(-c5ccc(F)cc5)c4=O)cc3F)c2nc1OC [Compound 26] | > 7.00 | > 7.00
COc1cc2nccc(Oc3ccc(NC(=O)c4cn(C5CCCC5)c(C)c(-c5ccc(F)c(Cl)c5)c4=O)cc3F)c2nc1OC [Compound 27, 5-(3-Chloro-4-fluorophenyl)-1-cyclopentyl-N-[4-[(6,7-dimethoxy-1,5-naphthyridin-4-yl)oxy]-3-fluorophenyl]-6-methyl-4-oxopyridine-3-carboxamide] | > 7.00 | > 7.00
COc1cc2nccc(Oc3ccc(NC(=O)c4cn(C5CC5)cc(-c5ccc(F)cc5)c4=O)cc3F)c2nc1OC [Compound 41, 1-Cyclopropyl-N-[4-[(6,7-dimethoxy-1,5-naphthyridin-4-yl)oxy]-3-fluorophenyl]-5-(4-fluorophenyl)-4-oxopyridine-3-carboxamide] | > 7.00 | > 7.00
COc1cc2nccc(Oc3ccc(NC(=O)c4cncc(-c5ccc(F)cc5)c4O)cc3F)c2nc1OC [Compound 42, N-[4-[(6,7-Dimethoxy-1,5-naphthyridin-4-yl)oxy]-3-fluorophenyl]-5-(4-fluorophenyl)-4-hydroxypyridine-3-carboxamide] | > 7.00 | > 7.00
COc1cc2nccc(Oc3ccc(NC(=O)c4cn(C(C)C)cc(-c5ccc(F)cc5)c4=O)cc3F)c2nc1OC [Compound 44, N-[4-[(6,7-Dimethoxy-1,5-naphthyridin-4-yl)oxy]-3-fluorophenyl]-5-(4-fluorophenyl)-4-oxo-1-propan-2-ylpyridine-3-carboxamide] | > 7.00 | > 7.00

The next lines start with the values.

pIC50 [1] | pIC50 [2] | SMILES
> 7.00 | > 7.00 | COc1cc2nccc(Oc3ccc(NC(=O)c4cn(C(C)C)c(C)c(-c5ccc(F)cc5)c4=O)cc3F)c2nc1OC [Compound 21, N-[4-[(6,7-Dimethoxy-1,5-naphthyridin-4-yl)oxy]-3-fluorophenyl]-5-(4-fluorophenyl)-6-methyl-4-oxo-1-propan-2-ylpyridine-3-carboxamide]
> 7.00 | > 7.00 | COc1cc2nccc(Oc3ccc(NC(=O)c4cn(C(C)C)c(C)c(-c5ccc(F)cc5)c4=O)cc3F)c2cc1OC [Compound 22, N-[4-(6,7-Dimethoxyquinolin-4-yl)oxy-3-fluorophenyl]-5-(4-fluorophenyl)-6-methyl-4-oxo-1-propan-2-ylpyridine-3-carboxamide]
> 7.00 | > 7.00 | COc1cc2nccc(Oc3ccc(NC(=O)c4cn(C(C)C)c(C)c(-c5ccc(Cl)c(Cl)c5)c4=O)cc3F)c2cc1OC [Compound 23, 5-(3,4-Dichlorophenyl)-N-[4-(6,7-dimethoxyquinolin-4-yl)oxy-3-fluorophenyl]-6-methyl-4-oxo-1-propan-2-ylpyridine-3-carboxamide]
> 7.00 | > 7.00 | COc1cc2nccc(Oc3ccc(NC(=O)c4cn(C(C)C)c(C)c(-c5ccc(F)c(Cl)c5)c4=O)cc3F)c2nc1OC [Compound 24, 5-(3-Chloro-4-fluorophenyl)-N-[4-[(6,7-dimethoxy-1,5-naphthyridin-4-yl)oxy]-3-fluorophenyl]-6-methyl-4-oxo-1-propan-2-ylpyridine-3-carboxamide]
> 7.00 | > 7.00 | COc1cc2nccc(Oc3ccc(NC(=O)c4cn(C(C)C)cc(-c5ccc(F)cc5)c4=O)cc3F)c2cc1OC [Compound 43, N-[4-(6,7-Dimethoxyquinolin-4-yl)oxy-3-fluorophenyl]-5-(4-fluorophenyl)-4-oxo-1-propan-2-ylpyridine-3-carboxamide]
